Data set [1] addresses T1, α1β2γ2 GABAA receptors expressed in Xenopus laevis oocytes (Homo sapiens, UniProt P14867+P18507).
T1 construct: expressed in transfected cells; host or cells: Xenopus laevis oocytes injected with cRNA
The data set is described as follows: Oocyte two-electrode voltage clamp electrophysiology, α1β2γ2. To be noted: GABA at EC10-20, normalized to diazepam. Type of data set: cell-based. How it is done:
(§1) FIG. 1. […] Efficacy profile on GABAA receptors in oocyte two-electrode voltage clamp recordings. […] Peak currents were read and normalized to a maximal effective concentration of diazepam, where after data points were fitted to the empirical Hill equation by non-linear regression, n=3−14.
(§2) The assay reported here is performed to determine the in vitro functional potency as well as efficacy of PAMs at the major brain GABAA receptors subtypes. To establish this, a full concentration response profile was determined at a GABA concentration giving rise to 5-20% of the maximal GABA-evoked response from α1β2γ2, α2β2γ2, α3β2γ2 and α5β2γ2 receptors expressed in Xenopus laevis oocytes.
Collagenase defolliculated X. laevis oocytes were obtained from Ecocyte Bioscience. For injection, the oocytes were placed in a custom designed chamber in Mod. Barth's solution (90 mM NaCl, 1 mM KCl, 0.66 mM NaNO3, 2.4 mM NaHCO3, 0.74 mM CaCl2, 0.82 mM MgCl2, 100 μg/ml Gentamicin and 10 mM HEPES adjusted to pH 7.55) and injected with 25-50 nl of cRNA mixture using a Pico Pump (WPI). The cRNA mixture contain GABAAR subunits αx, β2, and γ2s in the ratio of 3:1:3 and in a total concentration of 0.5 μg/μl. Following injection, oocytes were maintained at 18° C. in Mod.
Electrophysiological responses from X. laevis oocytes were measured using the two-electrode voltage clamp technique. Single oocytes were placed in custom designed recording chambers that were continuously perfused with ≥2 ml/min OR2 (90 mM NaCl, 2.5 mM KCl, 2.5 mM CaCl2, 1 mM MgCl2 and 5 mM HEPES pH 7.4). […] The oocyte was impaled using manual micro manipulators and allowed to equilibrate at a holding potential of −50 mV to −80 mV for at least 1 min to ensure a maximal leak current of 100 nA before the experiment was initiated. […] Currents were amplified by a Geneclamp 500B amplifier (Axon), low-pass filtered at 20 Hz, digitized at 200 Hz by a Digidata 1322A (Axon) and then recorded as well as analyzed by a PC (Compaq Evo) using the pClamp9 suite (Axon). […]
(Two-electrode voltage clamp is typically applied to oocytes expressing channels or transporters.)

The test system of data set [2] is male Sprague Dawley (SD) rats. The data set is described as follows: Rotarod performance in male SD rats. Particulars: 10 mg/kg per oral, 60 minutes before test. A general note: Falling from the rotarod earlier than controls is read as motor impairment.
Experimental: Rats were trained on the rota rod for two days at 4-40 rpm for 5 min before evaluating the drug effects on the 3rd day.
Male SD rats (150-180 grams, NTac:SD, Taconic, Denmark)
The rats were trained on an accelerating rotarod (4-40 rpm, PanLab), one trial of 5 minutes per day, for two days prior to drug testing. Only rats that were able to stay on the rotating rod for more than 90 seconds after two days of training were included in the study. At the day of testing, the rats were placed on the rotating rod, accelerating with a speed of 4-40 rpm/5 minutes with the minimum time possible to spend on the rod designated as 0 s, and the maximum time spent on the rod set at 300 s.
Data set [3] addresses T2, α2β2γ2 GABAA receptors expressed in Xenopus laevis oocytes (Homo sapiens, UniProt P18507+P47869).
T2 construct: expressed in transfected cells; host or cells: Xenopus laevis oocytes injected with cRNA
The data set is described as follows: Oocyte two-electrode voltage clamp electrophysiology, α2β2γ2. Type of data set: cell-based. To be noted: GABA at EC10-20; normalized to maximal effective concentration of diazepam. On the procedure: as §1, §2
(§3) Collagenase defolliculated X. laevis oocytes were obtained from Ecocyte Bioscience. For injection, the oocytes were placed in a custom designed chamber in Mod. […]
(§4) Electrophysiological responses from X. laevis oocytes were measured using the two-electrode voltage clamp technique. […] Currents were amplified by a Geneclamp 500B amplifier (Axon), low-pass filtered at 20 Hz, digitized at 200 Hz by a Digidata 1322A (Axon) and then recorded as well as analyzed by a PC (Compaq Evo) using the pClamp9 suite (Axon). […]

The target in data set [4] is T3, α5β2γ2 GABAA receptors expressed in Xenopus laevis oocytes (Homo sapiens, UniProt P18507+P31644).
T3 construct: expressed in transfected cells; host or cells: Xenopus laevis oocytes injected with cRNA
In words: Oocyte two-electrode voltage clamp electrophysiology, α5β2γ2. The format is cell-based. To be noted: GABA at EC10-20; normalized to maximal effective concentration of diazepam. How it is done:
as §1, §2, §3, §4

Data set [5] has as its target T4, recombinant GABA α3β2γ2 receptors (HEK-293 cell membranes) (Homo sapiens, UniProt P18507+P34903).
T4 construct: expressed in transfected cells; membranes
The data set is described as follows: In vitro inhibition of 3H-flumazenil binding. Particulars: 3H-flumazenil 1 nM, 40 min at 2° C., HEK-293 α3β2γ2 membranes. An excerpt: Specific binding is total binding minus non-specific binding.

Data set [6] deals with Compound 48/80 induced scratching in male CD-1 mice. The data set is described as follows: Compound 48/80 induced scratching in male CD-1 mice.
Experimental: Male CD-1 mice (22-30 g) (InterVivo Solutions, Canada)
All treatments were dosed at a dosing volume of 10 ml/kg.
Visual observation of bouts of scratching over 30 minutes. Visual assessments were performed blinded to treatment.
The subject of data set [7] is male Sprague Dawley (SD) rats. In words: Exploratory locomotor activity in male SD rats. The format is in vivo, rat. To be noted: up to 30 mg/kg per oral, 120 minutes prior, recorded 30 minutes. How it is done: FIG. 4. […] The activity of the rats was automatically registered for 30 minutes (TSE MoTil, Germany).
Male SD rats (180-250 grams, NTac:SD, Taconic, Denmark)
2 hrs post dosing, the rats were placed individually into novel standard home cages with reduced sawdust bedding. The cages were placed in frames equipped with photocells and beams allowing for automatic recording of locomotor behaviour (TSE MoTil, Germany). The exploratory locomotor activity was recorded for 30 minutes.

The target of data set [8] is T5, α3β2γ2 GABAA receptors expressed in Xenopus laevis oocytes (Homo sapiens, UniProt P18507+P34903).
T5 construct: expressed in transfected cells; host or cells: Xenopus laevis oocytes injected with cRNA
In words: Oocyte two-electrode voltage clamp electrophysiology, α3β2γ2. To be noted: GABA at EC10-20; normalized to diazepam. The format is cell-based. How it is done: as §1, §2, §3, §4

For data set [9], the system named is Chronic Constriction Injury (CCI) in Rats. The data set is described as follows: Mechanical allodynia in chronic constriction injury (CCI) rats, acute and chronic dosing. Particulars: for paw withdrawal threshold vs vehicle after chronic dosing: tested day 8.
Experimental: Morphine was administered subcutaneously. […] The animals were tested after 14 days of surgery. **p<0.01,****p<0.0001 vs vehicle, Two-way ANOVA Fisher's LSD posttest, n=7−9.
Male SPRD rats (Taconic), 140-160 grams at surgery
The sciatic nerve was exposed at the mid-thigh level proximal to the sciatic trifurcation. Four chromic gut ligatures (4/0) (Ethicon, New Brunswick, N.J.) were tied loosely around the nerve, 1-2 mm apart, such that the vascular supply was not overtly compromised. The overlying muscle was closed in layers with 4/0 synthetic absorbable surgical suture.
Morphine-hydrochloride: 6 mg/kg free base weight, 1 ml/kg, subcutaneous administration. Pretreatment: 30 minutes
Morphine hydrochloride: 6 mg/kg free base weight, 1 ml/kg, subcutaneous administration once daily for 7 days.

Molecules are shown by their SMILES. Entries after “also recorded” stand apart in the source; their conditions may differ.

T1 sequence (P14867 28-456): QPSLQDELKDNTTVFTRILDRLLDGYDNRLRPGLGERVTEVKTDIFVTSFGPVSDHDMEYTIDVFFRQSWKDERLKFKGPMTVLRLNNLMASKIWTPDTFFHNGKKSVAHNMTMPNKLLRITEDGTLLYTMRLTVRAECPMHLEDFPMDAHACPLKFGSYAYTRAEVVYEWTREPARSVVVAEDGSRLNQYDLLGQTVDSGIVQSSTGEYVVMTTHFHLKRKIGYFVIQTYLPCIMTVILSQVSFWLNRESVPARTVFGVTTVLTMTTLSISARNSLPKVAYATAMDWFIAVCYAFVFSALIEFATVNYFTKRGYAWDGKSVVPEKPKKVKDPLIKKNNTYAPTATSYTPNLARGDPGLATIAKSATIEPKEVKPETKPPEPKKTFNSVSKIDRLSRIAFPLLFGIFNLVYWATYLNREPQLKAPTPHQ
T1 sequence (P47870 25-512 partner limits assumed): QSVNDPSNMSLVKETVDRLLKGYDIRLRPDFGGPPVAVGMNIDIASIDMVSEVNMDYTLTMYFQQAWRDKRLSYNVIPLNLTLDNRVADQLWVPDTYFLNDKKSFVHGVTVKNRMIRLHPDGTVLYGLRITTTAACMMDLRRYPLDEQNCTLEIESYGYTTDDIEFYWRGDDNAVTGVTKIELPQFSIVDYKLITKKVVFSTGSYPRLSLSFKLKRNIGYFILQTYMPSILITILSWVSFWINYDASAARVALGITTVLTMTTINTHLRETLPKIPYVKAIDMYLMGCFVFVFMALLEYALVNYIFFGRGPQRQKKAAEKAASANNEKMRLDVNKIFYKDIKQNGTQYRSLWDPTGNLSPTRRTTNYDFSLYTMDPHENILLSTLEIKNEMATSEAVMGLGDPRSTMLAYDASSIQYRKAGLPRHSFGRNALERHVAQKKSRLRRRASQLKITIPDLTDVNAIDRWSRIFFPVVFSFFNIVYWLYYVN
T1 sequence (P18507 40-467 isoform P18507-1 limits assumed): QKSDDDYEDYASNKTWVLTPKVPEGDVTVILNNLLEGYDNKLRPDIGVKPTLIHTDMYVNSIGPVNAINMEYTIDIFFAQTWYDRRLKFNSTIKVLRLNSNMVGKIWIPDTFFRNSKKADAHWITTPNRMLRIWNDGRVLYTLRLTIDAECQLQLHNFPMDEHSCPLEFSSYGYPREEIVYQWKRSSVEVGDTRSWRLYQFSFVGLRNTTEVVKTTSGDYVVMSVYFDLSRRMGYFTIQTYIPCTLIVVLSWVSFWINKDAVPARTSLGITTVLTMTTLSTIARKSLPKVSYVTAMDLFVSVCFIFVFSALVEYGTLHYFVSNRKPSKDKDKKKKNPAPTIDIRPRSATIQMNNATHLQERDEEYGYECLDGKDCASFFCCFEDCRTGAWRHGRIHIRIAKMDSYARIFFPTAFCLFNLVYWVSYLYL
T4 sequence (P34903 29-492): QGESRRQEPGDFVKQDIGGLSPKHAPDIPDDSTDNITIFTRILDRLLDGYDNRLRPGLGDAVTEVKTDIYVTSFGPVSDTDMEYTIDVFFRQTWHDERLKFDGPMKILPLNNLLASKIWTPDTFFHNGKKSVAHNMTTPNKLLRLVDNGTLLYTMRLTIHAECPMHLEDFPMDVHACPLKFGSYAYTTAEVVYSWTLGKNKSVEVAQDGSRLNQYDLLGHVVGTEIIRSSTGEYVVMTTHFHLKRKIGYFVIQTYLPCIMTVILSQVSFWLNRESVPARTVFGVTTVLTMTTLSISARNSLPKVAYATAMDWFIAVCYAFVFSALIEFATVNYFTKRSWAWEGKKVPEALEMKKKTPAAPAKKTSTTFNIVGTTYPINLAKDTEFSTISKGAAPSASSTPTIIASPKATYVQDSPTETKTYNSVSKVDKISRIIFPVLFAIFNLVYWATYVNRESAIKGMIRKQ
T4 sequence (P47870 25-512 partner limits assumed): as the sequence (P47870 25-512 partner limits assumed) above
T4 sequence (P18507 40-475): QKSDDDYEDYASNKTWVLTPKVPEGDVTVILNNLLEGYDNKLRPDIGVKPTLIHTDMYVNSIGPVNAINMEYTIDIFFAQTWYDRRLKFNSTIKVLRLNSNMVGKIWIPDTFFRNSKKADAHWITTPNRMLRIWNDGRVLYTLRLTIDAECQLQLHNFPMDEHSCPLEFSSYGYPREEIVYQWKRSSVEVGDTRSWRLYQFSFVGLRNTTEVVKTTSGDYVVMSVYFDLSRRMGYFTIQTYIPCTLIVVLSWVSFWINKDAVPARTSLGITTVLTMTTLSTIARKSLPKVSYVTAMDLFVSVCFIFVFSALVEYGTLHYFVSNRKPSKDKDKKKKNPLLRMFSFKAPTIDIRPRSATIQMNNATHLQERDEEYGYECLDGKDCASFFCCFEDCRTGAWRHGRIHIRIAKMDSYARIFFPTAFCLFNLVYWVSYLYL
T2 sequence (P47869 29-451): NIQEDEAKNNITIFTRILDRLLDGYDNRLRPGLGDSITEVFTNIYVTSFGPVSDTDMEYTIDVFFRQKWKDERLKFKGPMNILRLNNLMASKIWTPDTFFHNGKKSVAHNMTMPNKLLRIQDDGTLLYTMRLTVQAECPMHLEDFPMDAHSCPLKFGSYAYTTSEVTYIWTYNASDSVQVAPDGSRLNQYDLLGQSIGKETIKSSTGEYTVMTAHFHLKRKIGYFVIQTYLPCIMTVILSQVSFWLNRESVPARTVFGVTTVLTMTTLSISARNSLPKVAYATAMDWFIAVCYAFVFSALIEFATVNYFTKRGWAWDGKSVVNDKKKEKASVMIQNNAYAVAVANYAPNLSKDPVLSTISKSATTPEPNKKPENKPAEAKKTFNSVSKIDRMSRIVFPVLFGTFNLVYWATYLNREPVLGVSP
T2 sequence (P47870 25-512 partner limits assumed): as the sequence (P47870 25-512 partner limits assumed) above
T2 sequence (P18507 40-467 isoform P18507-1 limits assumed): as the sequence (P18507 40-467 isoform P18507-1 limits assumed) above
T5 sequence (P34903 29-492): as the sequence (P34903 29-492) above
T5 sequence (P47870 25-512 partner limits assumed): as the sequence (P47870 25-512 partner limits assumed) above
T5 sequence (P18507 40-467 isoform P18507-1 limits assumed): as the sequence (P18507 40-467 isoform P18507-1 limits assumed) above
T3 sequence (P31644 32-462): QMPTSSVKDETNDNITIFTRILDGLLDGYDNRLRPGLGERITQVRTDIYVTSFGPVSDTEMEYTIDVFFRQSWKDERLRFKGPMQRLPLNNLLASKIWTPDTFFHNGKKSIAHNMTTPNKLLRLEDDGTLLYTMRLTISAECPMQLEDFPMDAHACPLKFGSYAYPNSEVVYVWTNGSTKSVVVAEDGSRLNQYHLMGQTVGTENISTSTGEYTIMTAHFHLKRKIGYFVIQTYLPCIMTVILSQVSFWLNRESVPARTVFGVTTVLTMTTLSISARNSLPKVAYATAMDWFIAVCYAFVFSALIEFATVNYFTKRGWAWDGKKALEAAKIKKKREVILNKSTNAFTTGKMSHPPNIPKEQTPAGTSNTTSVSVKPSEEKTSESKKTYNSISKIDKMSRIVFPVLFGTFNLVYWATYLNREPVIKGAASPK
T3 sequence (P47870 25-512 partner limits assumed): as the sequence (P47870 25-512 partner limits assumed) above
T3 sequence (P18507 40-467 isoform P18507-1 limits assumed): as the sequence (P18507 40-467 isoform P18507-1 limits assumed) above

As to `COc1ncc(-c2cccc(-n3cnc4cc(C(C)(C)O)ccc43)c2)c(OC)n1` [Compound 9, reference compound], in data set [1], the “modulation of GABA-mediated currents, α1β2γ2 receptor” value is reported as “clearly negative”.

Turning to `CN1C(=O)CN=C(c2ccccc2)c2cc(Cl)ccc21` [Diazepam], the “latency to fall off accelerating rotarod” value in data set [2] is “significantly shortened the time to fall off the rod; also recorded: significantly shortened the latency to fall off”.

As to `COc1ncc(-c2cccc(-n3cnc4cc(C(C)(C)O)cnc43)c2)c(OC)n1` [Compound 1, 2-(3-(3-(2,4-dimethoxypyrimidin-5-yl)phenyl)-3H-imidazo[4,5-b]pyridin-6-yl)propan-2-ol], in [3], the “activation of GABAA-α2 containing receptors” value is recorded as “less than 10%”. In addition, the “activation of GABAA-α5 containing receptors” value in data set [4] is reported as “less than 10%”. The results for the “modulation of GABA-mediated currents, α1β2γ2 receptor” value in data set [1] and in data set [1] (listed as compound 1) were “no activation” and “close to zero”, respectively. Besides, the IC50 in [5] was found to be 38 nM. For the same compound, in data set [5], the Ki was 15 nM. Besides, in data set [6] (3, 10, 30 mg/kg oral gavage, 30 min prior, significant at 10 and 30 mg/kg), the “bouts of scratching over 30 minutes vs vehicle” value is on record as “significantly relieved itching; also recorded: dose dependently reduced”. In data set [6] (oral gavage 30 min before compound 48/80), the “minimal effective dose, bouts of scratching” value worked out at 10 mg/kg. Also, the exploratory locomotor activity entry in [7] is reported as “did not exert any effect; also recorded: did not affect exploratory locomotor activity”. For the setting “IV 0.5 mg/kg, rat”, this compound registered a CI of 0.38 L/h/kg. The “concentration after 8 h” value (dose 1 mg/kg (Table 3)) is listed as “*AUC calculated 0-8 h, concentration after 8 h was 149 ng/ml”. For the same compound, the “potentiation of GABA-mediated currents in GABAA-α3 containing receptors” value in data set [8] was “preferential potentiation”. For the same compound, the “paw withdrawal threshold vs vehicle after chronic dosing” value in data set [9] (1, 3, 10 mg/kg per oral once daily for 7 days) was “significant enhancement of the paw withdrawal threshold was maintained”; in [9] (1, 3, 10 mg/kg per oral once daily for 7 days, listed as compound 1), “significant analgesic effect of all 3 doses were maintained”. Besides, the “paw withdrawal threshold vs vehicle” value was “significantly enhanced paw withdrawal threshold” in [9] (acute, 1 mg/kg per oral, 2 hrs and 3 hrs post treatment); “significantly enhanced paw withdrawal threshold” in data set [9] (acute, 3 mg/kg per oral, 2 hrs and 3 hrs post treatment); “just failed to reach statistical significance” in data set [9] (acute, 10 mg/kg per oral). Further, the “minimal effective dose, reversal of mechanical allodynia” value in data set [9] (acute, oral administration, CCI rats) is on record as “less than or equal to 1 mg/kg”.

As to `CN1CC[C@]23c4c5ccc(O)c4O[C@H]2[C@@H](O)C=C[C@H]3[C@H]1C5.Cl` [Morphine hydrochloride, reference compound], the “paw withdrawal threshold vs vehicle after chronic dosing” value in data set [9] (6 mg/kg subcutaneous once daily for 7 days, hydrochloride) was “completely abolished the allodynic effect; also recorded: completely lost”. Moreover, in data set [9] (acute, 6 mg/kg subcutaneous), the “paw withdrawal threshold vs vehicle” value is “significantly enhanced paw withdrawal threshold”.

As a reminder, the IC50 is the concentration needed to halve the response being measured. As usually defined, the Ki is a measure of affinity in units of concentration, obtained from inhibition or displacement.

The values are drawn from patent US11396510B2, “GABAA receptor ligand” (Saniona A/S, priority 2018, dated 2022).
